The term IC50 denotes the concentration that inhibits the measured activity by half.

This is an account of results in PubChem BioAssay AID651973 (The Scripps Research Institute Molecular Screening Center, 2013).

Active and inactive are the calls of the source. The rule behind the calls is not given here. A value given as a limit tells only on which side of the number the result lay.

The experiment deals with Cell-based VP16 transactivation luciferase reporter, luminescence. In words: compounds lowering VP16-driven luciferase output – cell-based, luminescence, counter-screen for LRH-1 inverse agonist project, dose response (AID 651973).
For the compound `O=C(CSc1n[nH]c(-c2ccccc2)n1)Nc1ccc(F)cc1F`, the IC50 was > 35.9 µM (inactive). `CCc1cc(=O)oc2c(C)c(OCC(=O)NCCCN3CCCC3=O)ccc12`: the IC50 was > 35.9 µM (inactive). On to `COc1cc(C(=O)Nc2ccccc2N2CCN(S(C)(=O)=O)CC2)cc(OC)c1OC`, for which the IC50 was > 35.9 µM (inactive). For the compound `O=C(Nc1ccccc1)c1oc2ccccc2c1NC(=O)C1CC1`, the IC50 is > 35.9 µM (inactive). For the compound `CC(=O)Nc1ccc(NC(=O)CSc2nnnn2C2CCCCC2)cc1`, the IC50 was > 35.9 µM (inactive). In the case of `C/C(=N\Nc1cc(C(F)(F)F)ccc1Cl)c1ccncc1` it was > 35.9 µM (inactive); in that of `COc1cc(C(=O)Nc2ccccc2C2COC(=O)C2=N)cc(OC)c1OC` (stereo not drawn), > 35.9 µM (inactive). In the case of `Cc1ccccc1OCC(=O)N/N=C/c1ccc([N+](=O)[O-])o1` it was 29.8 µM (inactive). Under `O=C(COc1ccc2c3c(c(=O)oc2c1)CCCC3)NCCCN1CCOCC1` stands > 35.9 µM (inactive); under `Cc1c(NC(=S)NC(=O)c2ccc(Cl)cc2)c(=O)n(-c2ccccc2)n1C`, > 35.9 µM (inactive); under `COC(=O)c1ccc(NC(=O)CSc2nncn2-c2cccnc2)cc1`, > 35.9 µM (inactive). `O=C(COC(=O)c1ccc[n+]([O-])c1)Nc1ccc([N+](=O)[O-])cc1Cl`: the IC50 is > 35.9 µM (inactive). Under `CC1SC(C)C(=O)N(CC(=O)Nc2ccc3c(c2)OCO3)C1=O` (stereo not drawn) stands > 35.9 µM (inactive). Under `COc1ccc(Nc2nc(NCCN3CCOCC3)nc(Nc3ccc(OC)cc3)n2)cc1` stands > 35.9 µM (inactive); under `CCOc1cc(/C=N/n2nnnc2N)ccc1OCc1c(C)no[n+]1[O-]`, > 35.9 µM (inactive). Under `COc1cc(/C=N/n2nnnc2N)ccc1OCc1c(C)no[n+]1[O-]` stands > 35.9 µM (inactive); under `CCc1c(C)nc(SCC(=O)Nc2ccc3c(c2)OCCO3)[nH]c1=O`, > 35.9 µM (inactive).

Regarding `C[C@H](CO)N1C[C@H](C)[C@H](CN(C)Cc2ccncc2)Oc2cc(-c3ccccc3F)ccc2S1(=O)=O`, the IC50 was 14.6 µM (inactive). Under `Cn1cc(Cl)c(C(=O)OCC(=O)Nc2ccc(S(N)(=O)=O)cc2)n1` stands > 35.9 µM (inactive). In the case of `N#CCSc1ccccc1NC(=O)CN1C(=O)C2CC=CCC2C1=O` (stereo not drawn) it was > 35.9 µM (inactive); in that of `CC(=O)c1ccc(OC(C)C(=O)OCC(=O)NCCc2ccccc2)cc1` (stereo not drawn), > 35.9 µM (inactive); in that of `COc1ccc(NS(=O)(=O)c2ccc(OCC(=O)N3CCN(C)CC3)cc2)cc1Cl`, > 35.9 µM (inactive).

Consider `O=C(NCc1ccco1)c1nn(-c2ccccc2)c(=O)c2ccccc12`, for which the IC50 was > 35.9 µM (inactive). With `Cc1cc([N+](=O)[O-])ccc1NC(=O)CSc1nnc(C)n1C`, the IC50 was > 35.8 µM (inactive). Under `CCC(C)NC(=O)c1ccc2c(c1)N(Cc1ccccc1)C(=O)CS2` (stereo not drawn) stands > 35.9 µM (inactive); under `CC(C)Oc1cccc(-c2cc(C(=O)NN3CCOCC3)c3ccccc3n2)c1`, > 35.9 µM (inactive). In the case of `COc1ccccc1NC(=O)CN1CCN(CC(=O)Nc2ccc(S(N)(=O)=O)cc2)CC1` it was 20.4 µM (inactive). In the case of `Cc1onc(-c2ccccc2Cl)c1C(=O)O/N=C(\N)c1ccc([N+](=O)[O-])o1` it was > 35.9 µM (inactive); in that of `Cc1ccc(C)c(NC(=O)CSc2nnc(-c3n[nH]c4ccccc34)o2)c1`, > 35.9 µM (inactive); in that of `Cc1cc(OCC(=O)N2CCC(O)CC2)c2c(C)cc(=O)oc2c1`, > 35.9 µM (inactive). `N#Cc1cc([N+](=O)[O-])ccc1NC(=O)COC(=O)C1CCC(=O)N1` (stereo not drawn): the IC50 was > 35.9 µM (inactive). Under `Cc1no[n+]([O-])c1COc1ccc(/C=C2\NC(=S)NC2=O)cc1` stands > 35.9 µM (inactive); under `CC1CC(C)CN(c2cc(N(C)CCO)c([N+](=O)[O-])c3nonc23)C1` (stereo not drawn), > 35.9 µM (inactive); under `O=C(Nc1ccc(Cc2ccncc2)cc1)c1cccc([N+](=O)[O-])c1`, > 35.9 µM (inactive). Under `COc1cc(NC(=O)Cn2ccsc2=N)c(C)cc1[N+](=O)[O-]` stands > 35.9 µM (inactive); under `CC(=O)Nc1cc(-c2cccnc2)cn2c(-c3ccc(F)cc3)cnc12`, > 35.9 µM (inactive). In the case of `COc1ccc(CCNC(=O)COC(=O)C23CC4CC(CC(Br)(C4)C2)C3)cc1` it was > 35.9 µM (inactive); in that of `CCOCC(=O)Nc1ccc(S(=O)(=O)NCCc2ccccc2)cc1`, > 35.9 µM (inactive); in that of `Cc1ccc(-c2csc(NC(=O)c3ccc([N+](=O)[O-])o3)n2)cc1`, > 35.9 µM (inactive).

In the case of `COc1ccc(OCCNC(=O)C2(C)CCN2Cc2ccc3ccccc3c2)cc1` (stereo not drawn), the IC50 is 23.8 µM (inactive). As to `O=C(COc1ccc(S(=O)(=O)N2CCCC2)cc1Cl)Nc1ccc2c(c1)OCO2`, the IC50 was > 35.9 µM (inactive). In the case of `CCCc1cc(=O)oc2c(C)c(OCC(=O)NCCCn3ccnc3)ccc12` it was > 35.9 µM (inactive); in that of `CC(O)(c1ccc(F)c(F)c1)c1nc(-c2ccc(S(C)(=O)=O)cc2)cs1` (stereo not drawn), 34.7 µM (inactive). In the case of `CCc1cc(=O)oc2c(C)c(OCC(=O)NCCN3CCOCC3)ccc12` it was > 35.9 µM (inactive); in that of `COc1ccc(S(=O)(=O)N2CCN(CC(=O)Nc3ccc(C)c(F)c3)CC2)cc1`, > 35.9 µM (inactive). Under `COc1cccc(-c2cnc3c(NC(C)=O)cc(-c4ccc(S(C)(=O)=O)cc4)cn23)c1` stands > 35.9 µM (inactive). As for `NC(=O)C1CCN(C(=O)COc2ccc3c4c(c(=O)oc3c2)CCCC4)CC1`, the IC50 is > 35.9 µM (inactive). In the case of `CC(=O)Nc1cc(-c2ccc(S(C)(=O)=O)cc2)cn2c(-c3ccc(F)cc3)cnc12`, the IC50 is > 35.9 µM (inactive). Regarding `O=C(CCl)NCCCN(C(=O)C(Cl)Cl)c1ccc([N+](=O)[O-])cc1`, the IC50 was 28.4 µM (inactive).

In the case of `COC(=O)c1ccc(N2CCCCC2)c(NC(=O)c2ccco2)c1`, the IC50 is 13.3 µM (inactive). On to `COc1ccc(OC)c(NC(=O)c2ccccc2NC(=O)c2ccco2)c1`, for which the IC50 is > 35.9 µM (inactive). As to `CCOc1ccc(OCCC(=O)OCC(=O)Nc2ccc3c(c2)OCCO3)cc1`, the IC50 is > 35.9 µM (inactive). Under `O=C(CCl)NCCN1C(=O)S/C(=C\c2cccnc2)C1=O` stands 26.8 µM (inactive); under `CC(=O)Nc1ncc(Cc2cc(Cl)ccc2Cl)s1`, > 35.9 µM (inactive); under `CC(=O)Nc1ccc(NC(=O)CSc2ccc(-c3ccco3)nn2)cc1`, > 35.9 µM (inactive). Under `COc1ccc(NC(=O)CSc2ncnc3[nH]ncc23)cc1` stands > 35.9 µM (inactive); under `CCn1cc(Br)c(C(=O)Nc2ccccc2C(=O)OC)n1`, > 35.9 µM (inactive); under `COc1ccccc1Oc1nnnn1-c1ccc(C(N)=O)cc1`, > 35.9 µM (inactive).

Consider `COc1ccc(NC(=O)CN2C(=O)NC3(CCCC3)C2=O)cc1`, for which the IC50 is > 35.9 µM (inactive).

Take `CCOc1ccc(OCCN2C(=O)NC(Cc3c[nH]c4ccccc34)C2=O)cc1` (stereo not drawn): the IC50 is > 35.9 µM (inactive).

For `COc1ccc(NC(=O)CSc2nc3nc(C)cc(C)c3c(=O)[nH]2)cc1`, the IC50 is > 35.9 µM (inactive).

Regarding `O=C(COC(=O)CCN1C(=O)C2CC=CCC2C1=O)NCCc1ccc(F)cc1` (stereo not drawn), the IC50 is > 35.9 µM (inactive). Under `COc1ccc(NC(=O)CS(=O)(=O)c2ccc(C)cc2)c(OC)c1` stands > 35.9 µM (inactive); under `Cc1cc(OCC(=O)Nc2nccs2)c2c(C)cc(=O)oc2c1`, > 35.9 µM (inactive). Take `Cc1ccc(NC(=O)CSc2nnc([C@@H]3CCCN3C(=O)OC(C)(C)C)o2)c(C)c1`: the IC50 was > 35.9 µM (inactive). In the case of `COc1cc(OC)cc(C(=O)N[C@H](C(=O)OCC(=O)Nc2ccc3c(c2)OCO3)C(C)C)c1` it was > 35.9 µM (inactive). Under `NC(=O)C1CCN(C(=O)COc2ccc3c4c(c(=O)oc3c2)CCC4)CC1` stands > 35.9 µM (inactive); under `CCCNC(=O)c1sc2c(c1C(=O)Nc1ccccn1)CCCC2`, > 35.9 µM (inactive).

As to `Cc1cc(OCC(=O)NCc2cccnc2)c2c(C)c(C)c(=O)oc2c1`, the IC50 is > 35.9 µM (inactive). As to `COc1ccc(/C=N/NC(=O)c2ccc(NC(=O)c3cccc([N+](=O)[O-])c3)cc2)c(OC)c1`, the IC50 is > 35.9 µM (inactive). Under `CC(=O)Nc1ccc(NC(=O)CSc2nnc(-c3cc4ccccc4o3)n2C)cc1` stands > 35.9 µM (inactive). Under `O=C(OCC(=O)N1CCN(C(=O)COC(=O)c2ccc(O)cc2O)CC1)c1ccc(O)cc1O` stands > 35.9 µM (inactive); under `CCc1cc(=O)[nH]c(SCC(=O)Nc2ccc3c(c2)OCCO3)n1`, > 35.9 µM (inactive). Under `CN(C)S(=O)(=O)c1cccc(C(=O)OCC(=O)Nc2ccc3c(c2)OCCO3)c1` stands > 35.9 µM (inactive); under `CCc1cc(=O)oc2c(C)c(OCC(=O)NC3CC(C)(C)NC(C)(C)C3)ccc12`, > 35.9 µM (inactive); under `CCOc1ccc(NC(=O)CSc2nccn(-c3ccc4c(c3)OCCO4)c2=O)cc1`, > 35.9 µM (inactive). `CC1CCC2(CC1)NC(=O)N(CC(=O)Nc1ccc3c(c1)OCCCO3)C2=O` (stereo not drawn): the IC50 was > 35.9 µM (inactive). Under `Cc1cccc(NC(=O)CSc2nc3[nH]ncc3c(=O)[nH]2)c1C` stands > 35.9 µM (inactive).

In the case of `CC(=O)Nc1ccc(NC(=O)CSc2ccc(-c3ccc(-n4ccnc4)cc3)nn2)cc1`, the IC50 was > 35.9 µM (inactive).

Regarding `Cc1ccccc1C(=O)NC1CCN(CC(=O)Nc2ccc(Br)cc2)CC1`, the IC50 is > 35.9 µM (inactive). In the case of `O=C(COc1ccc2c3c(c(=O)oc2c1)CCCC3)NCc1ccccn1`, the IC50 is > 35.9 µM (inactive). In the case of `O=C(Nc1ccc(S(=O)(=O)N2CCOCC2)cc1)c1cccc([N+](=O)[O-])c1` it was > 35.9 µM (inactive).

Regarding `COc1ccc(-n2c(/C=C(\C)O)nc(=O)c3c(C)cc(C)nc32)cc1`, the IC50 was > 35.9 µM (inactive).
